These compounds were tested on P388 (assay: Cytotoxicity against mouse P388 cells).
Type: functional, cell-based

Structure (SMILES)	IC50 [µM]
COc1ccc(C[C@H]2C(=O)N(C)[C@@H](C)C(=O)N(C)[C@H]3Cc4ccc(cc4)Oc4cc(ccc4OC)C[C@@H](C(=O)N(C)[C@H](C)C(=O)N(C)[C@@H](C)C(=O)N2C)N(C)C3=O)cc1	3.1
COc1ccc(C[C@H]2C(=O)N(C)[C@@H](C)C(=O)N(C)[C@H]3Cc4ccc(cc4)Oc4cc(c(Br)cc4OC)C[C@@H](C(=O)N(C)[C@H](C)C(=O)N(C)[C@@H](C)C(=O)N2C)N(C)C3=O)cc1	> 110
COc1ccc(C[C@H]2C(=O)N(C)[C@@H](C)C(=O)N(C)[C@H]3Cc4ccc(cc4)Oc4cc(ccc4OC)C[C@@H](C(=O)N(C)[C@H](C)C(=O)N[C@@H](C)C(=O)N2C)N(C)C3=O)cc1	10
COc1ccc(C[C@H]2C(=O)N[C@@H](C)C(=O)N(C)[C@H]3Cc4ccc(cc4)Oc4cc(ccc4OC)C[C@@H](C(=O)N[C@H](C)C(=O)N(N)[C@@H](C)C(=O)N2C)N(C)C3=O)cc1	0.0057
COc1ccc(C[C@H]2C(=O)N(C)[C@@H](C)C(=O)N(C)[C@H]3Cc4ccc(cc4)Oc4cc(ccc4OC)C[C@@H](C(=O)N(C)[C@H](C)C(=O)N(N)[C@@H](C)C(=O)N2C)N(C)C3=O)cc1	49
COc1ccc(C[C@H]2C(=O)N[C@@H](C)C(=O)N(C)[C@H]3Cc4ccc(cc4)Oc4cc(ccc4OC)C[C@@H](C(=O)N[C@H](C)C(=O)N[C@@H](C)C(=O)N2C)N(C)C3=O)cc1	0.0022
